Source: patent publication US5354748A, “Oral antibacterial compositions and method for the improvement of gastrointestinal absorption of penem or carbapenem antibiotics” (Suntory Limited, priority 1991, dated 1994)
Read-outs that look alike come from different tables or passages of the source.

Columns and labels:
[1] = dog, in vivo
Procedure: Capsules were prepared by filling capsules with a 12.6:1 or 126:1 (by molar ratio) mixture of sodium (1'R,2"R,5R,6S)-6-(1'-hydroxyethyl)-2-(2"-tetrahydrofuranyl)penem-3-carboxylate 2.5 hydrate and cilastatin, namely, with a powder mixture consisting of 75 mg of the penem carboxylate and 7.5 or 0.75 mg of cilastatin per capsule. One of the capsules was orally administered to matured dogs. The blood was collected during the period of from 0.25 to 4 hours after the administration, and the concentrations of the free acid of the penem in plasma samples were measured by HPLC. Further, urine samples were collected until 24 hours after the administration and the concentrations of the free acid of the penem in the urine samples were measured by HPLC.
The area under the concentration:time curve (AUCpO) Of the compound contained in the plasma after its oral administration was compared to the area under the concentration:time curve (AUCiv) when the penemcarboxylate alone was intravenously administered at 10 mg/Kg and, assuming AUCiv be 100%, the percentage of AUCpo was calculated in accordance with the following formula and recorded as Oral Absorption Percentage A. Similarly, assuming that the percentage of excretion of the above penemcarboxylate into urine (Uiv) upon its intravenous administration at 10 mg/Kg be 100%, Oral Absorption Percentage B was calculated in accordance with the following formula from the percentage of excretion of the penemcarboxylate into urine upon its oral administration (Upo).
Oral absorption A (%)=AUCpo/AUCiv×10/75×100
Oral absorption B (%)=Upo/Uiv×100

[2] = Plasma concentration of penem in rats, oral penem with oral cilastatin (Example 5); assay type: in vivo, Sprague-Dawley male rats; details: rat; for AUC at 1.5 h / Cmax: plasma, po, 57.1 mg/kg, oral 57.1 mg (titer)/Kg; for Cmax: read-out: Highest concentration in plasma
Procedure: (§1) Seven-week-old Sprague-Dawley male rats were orally administered with 57.1 mg (titer)/Kg of sodium (1'R,2"R,5R,6S)-6-(1'-hydroxyethyl)-2-(2"-tetrahydrofuranyl)penem-3-carboxylate 2.5 hydrate. At the same time, cilastatin was orally administered at 7.17, 0.717 or 0.0717 mg/Kg. The blood was collected during the period of from 0.1 to 1.5 hours after the administration. The concentrations of the free acid of the penem in plasma samples were measured by high performance liquid chromatography (HPLC) to determine the highest concentration in plasma and the area under the plasma concentration:time curve (AUC).

[3] = in vivo; set-up: species or system Sprague-Dawley male rats; details: rat, plasma, iv, 11.4 mg/kg, intravenous penem 11.4 mg (titer)/Kg
Procedure: The blood was collected during the period of from 0.1 to 1.5 hours after the administration. The concentrations of the free acid of the penem in plasma samples were measured by high performance liquid chromatography (HPLC) to determine the area under the plasma concentration:time curve (AUC).

[4] = Plasma concentration of penem in rats, oral penem with oral glutathione (Example 6); assay type: in vivo, Sprague-Dawley male rats; details: rat; for AUC at 2 h / Cmax: plasma, po, 57.1 mg/kg, oral 57.1 mg (titer)/Kg
Procedure: as §1, with “glutathione” for “cilastatin”, “57.1” for “7.17, 0.717”, “5.71” for “0.0717”, “2.0” for “1.5”

[5] = Plasma concentration and urinary excretion of penem in dogs, capsules with glutathione (Example 7); assay type: in vivo; details: dog, po, 75 mg; for AUC at 4 h / Cmax: plasma
Procedure: Namely, the penemcarboxylate and glutathione were mixed in amounts of 75 mg (titer) and 75, 15 or 3.75 mg, respectively, per capsule. The resultant mixed powder was filled in a capsule. Capsules were prepared in the manner described above.

[6] = Plasma concentration of penem in rats, oral penem with oral N-acetyl-L-cysteine (Example 8); assay type: in vivo, Sprague-Dawley male rats; details: rat, 57.1 mg/kg, oral 57.1 mg (titer)/Kg
Procedure: Seven-week-old Sprague-Dawley male rats were orally administered with 57.1 mg (titer)/Kg of sodium (1'R,2"R,5R,6S)-6-(1'-hydroxyethyl)-2-(2"-tetrahydrofuranyl)penem-3-carboxylate 2.5 hydrate. At the same time, N-acetyl-L-cysteine was orally administered at 57.1 mg/Kg. The blood was collected during the period of from 0.1 to 2.0 hours after the administration.
The concentrations of the free acid of the penem in plasma samples were measured by high performance liquid chromatography (HPLC) to determine the highest concentration in plasma and the area under the plasma concentration: time curve (AUC).

[7] = Plasma concentration and urinary excretion of penem in dogs, capsules with glutathione (Example 7); assay type: in vivo; details: dog; for AUC at 4 h / Cmax: plasma; for AUC at 4 h / Cmax / dose excreted at 24 h: po, 75 mg, oral capsule 75 mg (titer); for dose excreted at 24 h: urine, read-out: Excretion into urine
[8] = penem:glutathione molar ratio 11:1
[9] = penem:glutathione molar ratio 11:1, read-out: Highest concentration in plasma
[10] = single administration (penem alone)
[11] = single administration (penem alone), read-out: Highest concentration in plasma

Increase of oral absorption percentage (from AUC) relative to penemcarboxylate alone [1]: 2.3 times
Oral absorption A [1]: 33.9%
Increase of oral absorption percentage (from excretion into urine) relative to penemcarboxylate alone ([1]; 1440 min): 2.3 times
Oral absorption B ([1]; 24 h): 38.6%
Highest concentration in plasma ([1]; po): 11.86 µg/mL
AUC ([1]; po, 4 h): 18620 ng·h/mL
Excretion into urine ([1]; po, 24 h): 16.58%
Increase of AUC relative to single administration ([2]; oral, at each cilastatin dosage (7.17, 0.717, 0.0717 mg/Kg)): 2.8-4.8 times
AUC at 1.5 h ([2]; cilastatin 0 (penem alone)): 4420 ng·h/mL
Cmax ([2]; cilastatin 0 (penem alone)): 4810 ng/mL
AUC at 1.5 h ([2]; cilastatin 0.0717 mg/Kg oral): 12200 ng·h/mL
Cmax ([2]; cilastatin 0.0717 mg/Kg oral): 6890 ng/mL
AUC at 1.5 h ([2]; cilastatin 0.717 mg/Kg oral): 21100 ng·h/mL
Cmax ([2]; cilastatin 0.717 mg/Kg oral): 8680 ng/mL
AUC at 1.5 h ([2]; cilastatin 7.17 mg/Kg oral): 19600 ng·h/mL
Cmax ([2]; cilastatin 7.17 mg/Kg oral): 12700 ng/mL
AUC at 1.5 h ([3]; cilastatin 0 (penem alone)): 7170 ng·h/mL
AUC at 1.5 h ([3]; cilastatin 0.0717 mg/Kg oral): 6860 ng·h/mL
AUC at 1.5 h ([3]; cilastatin 0.717 mg/Kg oral): 5670 ng·h/mL
AUC at 1.5 h ([3]; cilastatin 7.17 mg/Kg oral): 6740 ng·h/mL
Increase of AUC relative to penem alone ([4]; oral, glutathione 1/11 of the penem): 1.2 times
AUC at 2 h ([4]; penem:glutathione molar ratio 1.1:1): 6160 ng·h/mL
Cmax ([4]; penem:glutathione molar ratio 1.1:1, read-out: Highest concentration in plasma): 5840 ng/mL
AUC at 2 h [4, 8]: 5540 ng·h/mL
Cmax [4, 9]: 5030 ng/mL
AUC at 2 h [4, 10]: 4570 ng·h/mL
Cmax [4, 11]: 4340 ng/mL
AUC at 4 h ([5]; oral capsule 75 mg (titer), penem:glutathione molar ratio 1.1:1): 33700 ng·h/mL
Cmax ([5]; oral capsule 75 mg (titer), penem:glutathione molar ratio 1.1:1, read-out: Highest concentration in plasma): 22700 ng/mL
Cmax ([5]; oral, single administration (penem alone), read-out: Highest concentration in plasma): 11600 ng/mL
AUC at 4 h [5, 10]: 17700 ng·h/mL
dose excreted at 24 h ([5]; urine, oral, single administration (penem alone), up to 24 hours, read-out: Excretion into urine): 16.7%
AUC at 2 h ([6]; penem:N-acetyl-L-cysteine molar ratio 0.6:1): 5240 ng·h/mL
Cmax ([6]; penem:N-acetyl-L-cysteine molar ratio 0.6:1, read-out: Highest concentration in plasma): 6790 ng/mL
AUC at 2 h [6, 10]: 2520 ng·h/mL
Cmax [6, 11]: 3290 ng/mL
Increase of AUC relative to single administration ([7]; oral, glutathione 1/110 of the penemcarboxylate): 1.2 times
AUC at 4 h [7, 8]: 25400 ng·h/mL
Cmax [7, 9]: 18000 ng/mL
AUC at 4 h ([7]; penem:glutathione molar ratio 110:1): 21900 ng·h/mL
Cmax ([7]; penem:glutathione molar ratio 110:1, read-out: Highest concentration in plasma): 14700 ng/mL
dose excreted at 24 h ([7]; penem:glutathione molar ratio 11:1, up to 24 hours): 20.7%
dose excreted at 24 h ([7]; penem:glutathione molar ratio 110:1, up to 24 hours): 19.9%
Compound: C[C@@H](O)[C@H]1C(=O)N2C(C(=O)O)=C([C@H]3CCCO3)S[C@H]12 [sodium (1'R,2"R,5R,6S)-6-(1'-hydroxyethyl)-2-(2"-tetrahydrofuranyl)penem-3-carboxylate 2.5 hydrate]
